# Data taken from patent publication EP2678315B1, “(Pyridin-4-yl)benzylamides as allosteric modulators of alpha 7 nAChR” (Janssen Pharmaceutica, N.V., priority 2011, dated 2012).
# Where two headings read alike, the source gives them in different places.
# Key:
# human alpha 7-wt nAChR [1] = molecular target: T1, human alpha 7-wt nAChR (Homo sapiens, UniProt P36544); test: Ca2+ flux imaging (FDSS) (protocol B); format: cell-based; conditions: for EC50: read-out: pEC50 (converted); for Emax: read-out: % Efficacy
# T1 construct: expressed in transfected cells
# T1 sequence (P36544 23-502): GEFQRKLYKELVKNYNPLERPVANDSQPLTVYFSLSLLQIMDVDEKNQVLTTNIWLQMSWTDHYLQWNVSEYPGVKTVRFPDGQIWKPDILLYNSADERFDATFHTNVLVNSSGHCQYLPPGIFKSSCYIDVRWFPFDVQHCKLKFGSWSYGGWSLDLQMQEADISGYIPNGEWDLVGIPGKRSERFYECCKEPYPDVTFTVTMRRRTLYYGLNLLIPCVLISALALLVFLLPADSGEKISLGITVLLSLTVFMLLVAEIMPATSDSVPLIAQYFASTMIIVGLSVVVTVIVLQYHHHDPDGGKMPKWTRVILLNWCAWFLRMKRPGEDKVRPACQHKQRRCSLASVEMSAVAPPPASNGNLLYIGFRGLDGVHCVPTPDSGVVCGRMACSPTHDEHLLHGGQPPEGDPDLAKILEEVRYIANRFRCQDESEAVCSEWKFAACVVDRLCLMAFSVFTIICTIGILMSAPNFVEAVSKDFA
# Outline: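 Fluo-4AM-loaded (2 µM) cells expressing human α7-wt nAChR in HEPES-HBSS with 5 mM CaCl2. Compounds (0.01–30 µM) were added, possibly 10 min before, with choline 100 µM, and peak fluorescence was monitored by FDSS. Potentiation was relative to the choline response, set as 100%; EC50 came from sigmoidal curves.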
# human alpha 7-wt nAChR [2] = molecular target: T1, human alpha 7-wt nAChR; test: Patch-clamp current recording (whole-cell voltage-clamp, GH4C1 cells); format: cell-based; design: key: Type 0 compounds minimally change the effect size of the current elicited by 1 mM choline.; Type 1 compounds enhance the effect size of the current elicited by 1 mM choline but minimally alter the kinetics of the receptor.; Type 2 compounds enhance the effect size of the current elicited by 1 mM choline while reducing the rate and/or the extent of desensitization.; Type 3 compounds enhance the effect size of the current elicited by 1 mM choline. When tested at higher concentrations up to 10 µM they completely inhibit desensitization; Type 4 compounds allow for an initial desensitization of the receptor followed by a re-opening of the receptor during agonist application; conditions: current elicited by 1 mM choline
# Experimental: The compounds of the present invention are classified as type 1-4, based on qualitative kinetic properties, as determined by whole-cell voltage-clamp recordings. This classification is based on the effect of an alpha 7 PAM compound, as described hereinbefore, on the signal elicited by an agonist application. In particular, said agonist is choline at a concentration of 1mM. In a preferred experimental setting, said alpha 7 PAM compound and choline are simultaneously applied to the cell, as described hereinafter. Desensitization is defined as the closure of the receptor upon activation during the application of the agonist in whole-cell voltage-clamp electrophysiology measurements seen as the reduction of the […] current after initial activation by the agonist.
# The definition of the PAM types 1-4 is described hereinafter: Type 0 compounds minimally change the effect size of the current elicited by 1 mM choline. Type 1 compounds enhance the effect size of the current elicited by 1 mM choline but minimally alter the kinetics of the receptor. In particular, the rate and the extent of desensitization and of deactivation of the receptor elicited by the agonist is not affected. The compound-modulated response to 1 mM choline, therefore, is close to a linear scaling of the 1 mM choline response in absence of the alpha 7 PAM compound: Type 2 compounds enhance the effect size of the current elicited by 1 mM choline while reducing the rate and/or the extent of desensitization. Deactivation of the receptor is generally unaffected. Type 3 compounds enhance the effect size of the current elicited by 1 mM choline. […] Deactivation of the receptor may be slowed down. Type 4 compounds allow for an initial desensitization of the receptor followed by a re-opening of the receptor during agonist application. At low-potency concentrations of the alpha 7 PAM compound, the agonist-induced activation, which is followed by desensitization, can still be separated from the compound-induced re-opening as an initial inward current-maximum. At higher potency concentrations of the alpha 7 PAM compound, the re-opening occurs faster than the closure due to desensitization so that the initial current-maximum disappears.
# A compound was considered to have interesting PAM-like activity when the potentiation of the peak current was at least 200% compared to the control choline response (= 100%). Such compounds are classified as belonging to a particular PAM type in the Experimental Part. Compounds not meeting the condition are not classified as belonging to a particular PAM-type.
# The compounds also have a potentiating effect on the response to choline when measured by whole-cell patch clamp electrophysiology in GH4C1 cells stably over-expressing the human wild-type alpha 7 receptor.
# Example D.2 : Patch-clamp current recording
# Patch-clamp recording from mammalian cells has provided a powerful means of assessing the function of membrane-bound proteins thought to be subunits of ligand-gated ion channels. Activation of such proteins by endogenous or exogenous ligands cause opening of a pore associated with the receptor through which ions flow down their electrochemical gradient. In the case of the human alpha 7-wt nAChR-expressing GH4C1 recombinant cell line the preferential permeability to calcium of this receptor means that calcium flows into the cell upon activation by ACh, choline and other nicotinic ligands giving rise to a calcium current. Since this receptor rapidly desensitizes in the presence of agonist it is important that an application system is used which is capable of very rapid switching of solutions (< 100 ms) to prevent partial or full desensitisation of receptor responses coincident with the time of agonist application. Consequently, a second convenient technique to assess the enhancement of nicotinic efficacy is a patch-clamp recording from human alpha 7-wt nAChR-expressing GH4C1 cells coupled with a rapid-application system. […]
Emax (human alpha 7-wt nAChR [1]; Ca2+ assay as described in D.1) [%],SMILES,EC50 (human alpha 7-wt nAChR [1]; Ca2+ assay as described in D.1) [nM],Emax (human alpha 7-wt nAChR [1]) [%],PAM type (human alpha 7-wt nAChR [2])
,Cc1cc(-c2c(F)cc(N3CCO[C@@H](C(F)(F)F)C3)cc2CNC(=O)C2CC2)cc(C)n1 [Compound 102],33.1,962,3
,Cc1cc(-c2c(F)cc(N3CCOC(C)C3)cc2CNC(=O)C(C)C)cc(C)n1 (centres unmarked) [Compound 113],89.1,284,2
,Cc1cc(-c2c(F)cc(N3CCO[C@@H](C(F)(F)F)C3)cc2CNC(=O)c2cc(C)on2)cc(C)n1 [Compound 100],155,,2
,Cc1cc(-c2c(F)cc(N3CCO[C@H](C(F)(F)F)C3)cc2CNC(=O)CC2CCC2)cc(C)n1 [Compound 105],17,559,3
,Cc1cc(-c2cc(F)c(N3C[C@@H](C)O[C@@H](C)C3)cc2CNC(=O)C2CC2)cc(C)n1 [Compound 126],575,352,2
,Cc1cc(-c2ccc(N3C[C@@H](C)O[C@@H](C)C3)cc2CNC(=O)C2CC2)cc(C)n1 [Compound 6],120,,2
,Cc1cc(-c2c(Cl)cc(N3C[C@@H](C)O[C@@H](C)C3)cc2CNC(=O)c2cc(C)on2)cc(C)n1 [Compound 120],661,,1
,Cc1cc(-c2c(F)cc(N3CCO[C@@H](C(F)(F)F)C3)cc2CNC(=O)CC2CC2)cc(C)n1 [Compound 104],9.12,,3
,Cc1cc(-c2c(F)cc(N3C[C@@H](C)O[C@@H](C)C3)c(F)c2CNC(=O)CC2CC2)cc(C)n1 [Compound 124],347,,2
,Cc1cc(-c2ccc(N3C[C@@H](C)O[C@@H](C)C3)cc2CNC(=O)c2conc2C)cc(C)n1 [Compound 4],45.7,,2
,Cc1cc(-c2cc(F)c(N3C[C@@H](C)O[C@@H](C)C3)cc2CNC(=O)c2cc(C)on2)cc(C)n1 [Compound 127],550,554,1
,Cc1cc(-c2c(F)cc(N3C[C@@H](C)O[C@@H](C)C3)c(F)c2CNC(=O)c2cc(C)on2)cc(C)n1 [Compound 123],631,,0
,Cc1cc(-c2ccc(N3C[C@@H](C)O[C@@H](C)C3)c(CNC(=O)c3cc(C)on3)c2)cc(C)n1 [Compound 133],50.1,,0
,Cc1cc(-c2c(F)cc(N3CCO[C@@H](C(F)(F)F)C3)cc2CNC(=O)C(C)C)cc(C)n1 [Compound 99],9.77,292,3
,Cc1cc(-c2ccc(N3C[C@@H](C)O[C@@H](C)C3)c(CNC(=O)CC3CC3)c2)cc(C)n1 [Compound 132],60.3,,4
,Cc1cc(-c2c(F)cc(N3C[C@@H](C)O[C@@H](C)C3)cc2CNC(=O)c2conc2C)ccn1 [Compound 91],61.7,,2
,Cc1cc(-c2c(F)cc(N3C[C@@H](C)O[C@@H](C)C3)cc2CNC(=O)C2CCOCC2)cc(C)n1 [Compound 86],148,,3
,Cc1cc(-c2c(F)cc(N3CCO[C@@H](C(F)(F)F)C3)cc2CNC(=O)c2conc2C)cc(C)n1 [Compound 103],16.6,796,3
528,CC(C)C(=O)NCc1cc(N2CCOCC2)ccc1-c1ccncc1 [Compound 137],,,0
,Cc1cc(-c2c(F)cc(N3C[C@@H](C)O[C@@H](C)C3)cc2CNC(=O)C(C)C)ccn1 [Compound 89],72.4,,2
,Cc1cc(-c2ccc(N3CC4CCC(C3)O4)cc2CNC(=O)C2CC2)cc(C)n1 [Compound 131],631,269,2
,Cc1cc(-c2c(F)cc(N3CCOC(C)C3)cc2CNC(=O)CC2CCC2)cc(C)n1 (centres unmarked) [Compound 118],23.4,485,3
